# Data published in patent US20220175701A1, “TREATMENT OF MAJOR DEPRESSIVE DISORDER AND SUICIDAL IDEATIONS THROUGH STIMULATION OF HIPPOCAMPAL NEUROGENESIS UTILIZING PLANT-BASED APPROACHES” (THERAPEUTIC SOLUTIONS INTERNATIONAL, INC., priority 2020, published 2022).
# Like-named read-outs stand apart in the source and are kept apart here.
# Tests used:
# [1] = tested on: lipopolysaccharide-activated macrophages; conditions: cited from earlier work
# [2] = tested on: macrophage foam cells; conditions: cited from earlier work
# [3] = tested on: rats subjected to myocardial ischemia and reperfusion; conditions: EGCG 10 mg/kg intravenously then 10 mg/kg/h infusion; cited from earlier work
# [4] = tested on: mice with experimental colitis; conditions: cited from earlier work
# [5] = tested on: BALB/c mice exposed to random stress; test: Endogenous neurogenesis in stressed mice, BRDU incorporation assessed by histology; format: in vivo; conditions: stressed BALB/c mice treated daily; FIG. 1
# Description: FIG. 1 is a bar graph showing the results of stressed mice that were treated with Fluoxetine or QuadraMune™ daily. Assessment of endogenous neurogenesis was performed by administering BRDU and assessment of incorporation by histology.
# BALB/c mice where exposed to random stress 4 times a day by spinning by the tail for 15 seconds. Controls where not stressed. Stressed mice where treated with Prozac or QuadraMune™ daily. Assessment of endogenous neurogenesis was performed by administering BRDU and assessment of incorporation by histology.
# [6] = cited from earlier work
# [7] = tested on: primary peritoneal macrophages; conditions: cited from earlier work
# [8] = tested on: LPS-challenged macrophages; conditions: pre-incubated 6 h with SFN 0 to 50 μM, then LPS 24 h; cited from earlier work
# [9] = tested on: BALB/c mice with LPS-induced ARDS; conditions: cited from earlier work
# [10] = tested on: mice challenged with endotoxin (LPS 0111:B4) or live Escherichia coli; conditions: cited from earlier work; for concentrations of IL-la: controls 1187.0±278.64
# [11] = tested on: lipopolysaccharide-induced inflammatory reactions; conditions: cited from earlier work
# [12] = tested on: cancer patients; test: Pterostilbene (nanostilbene) in cancer patients, NK cell activity and interferon gamma; format: in vivo, human; conditions: administered in the form of nanostilbene
# From the text: Additionally, pterostilbene has shown to inhibit inflammatory cytokines associated with ARDS.
# [13] = tested on: human umbilical vein VECs (HUVECs); conditions: cited from earlier work
# [14] = tested on: apoE(−/−) mice; conditions: PT injection; cited from earlier work
# [15] = sulforaphane 50 mg/kg, LPS 5 mg/kg
compound,measurement,setting,value
"O=C(O[C@@H]1Cc2c(O)cc(O)cc2O[C@@H]1c1cc(O)c(O)c(O)c1)c1cc(O)c(O)c(O)c1 [EGCG, Epigallocatechin Gallate]",iNOS activity in soluble extracts,"[1]; EGCG 5 and 10 microM for 6-24 hr, vs macrophages without EGCG",significantly lower
same,NO production,[1]; cells cotreated with EGCG and LPS,Inhibition
same,activation of nuclear factor-kappaB,[1]; electrophoretic mobility shift assay,blocked
same,TNF-α-induced nuclear factor-κB (NF-κB) activity,[2],inhibition
same,TNF-α-induced downregulation of ABCA1 and decrease in cholesterol efflux to apoA 1,[2]; pretreatment with EGCG,attenuated
same,myocardial damage and myeloperoxidase activity,[3],reduced
same,plasma IL-6 and creatine phosphokinase levels,[3],decreased
same,disease activity index (DAI) and spleen index (SI),[4]; 50 and 100 mg/kg/day EGCG groups vs MD group,decreased
same,HIF-1α and STATS protein expression in the colon,"[4]; mouse, in vivo",decreasing
same,plasma levels of IL-10 and TGF-β1,"[4]; mouse, in vivo",increasing
same,release of IL-6 and IL-17,"[4]; mouse, in vivo",reduce
"CNCCC(Oc1ccc(C(F)(F)F)cc1)c1ccccc1 (stereo not drawn) [Prozac, Fluoxetine]",endogenous neurogenesis (BRDU incorporation by histology),[5],Augmented neurogenesis
"Oc1ccc(C=Cc2cc(O)cc(O)c2)cc1 [resveratrol, reference compound]",bioavailability,[6]; animal studies,20%
"C[S+]([O-])CCCCN=C=S (stereo not drawn) [sulforaphane, 1-isothiocyanato-4-(methylsulfinyl)-butane]",HO-1 expression,[7]; LPS-stimulated Nrf2 (+/+) primary peritoneal macrophages,significantly augmented
same,anti-inflammatory effect,[7]; Nrf2 (−/−) primary peritoneal macrophages,attenuated
same,"LPS-stimulated mRNA expression, protein expression and production of TNF-alpha, IL-1beta, COX-2 and iNOS","[7]; pretreatment, Nrf2 (+/+) primary peritoneal macrophages",potently inhibited
same,expression of NO and cytokines,[8],able to prevent
same,serum levels of interleukin-6 (IL-6) and tumor necrosis factor-α (TNF-α),"[9]; ELISA, sulforaphane 50 mg/kg",significantly decreased
same,Nrf2/antioxidant response element (ARE) pathway,[9]; pre-treatment,activated
same,lactate dehydrogenase (LDH) activity,[9]; [15],significantly decreased
same,wet-to-dry ratio of the lungs,[9]; [15],significantly decreased
same,nuclear factor-κB protein expression,[9]; sulforaphane 50 mg/kg,significantly decreased
same,"prostaglandin E2 (PGE2) production, COX-2 and MMP-9 protein expression, iNOS activity",[9]; sulforaphane 50 mg/kg,significantly inhibited
CC1=CC(=O)C(C(C)C)=CC1=O [thymoquinone],concentrations of IL-la,[10]; 0.75 mg/kg thymoquinone dose,310.8 ± 70.93 pg/mL
same,IL-10 levels,"[10]; 0.75 mg/kg thymoquinone, controls 5505.2±333.96",2885.0 ± 553.98 pg/mL
same,concentrations of IL-la,[10]; 1 mg/kg group,428.3 ± 71.32 pg/mL
same,levels of TNF-α and IL-2,[10]; P values=0.1817 and 0.0851,relatively lower levels
same,renal and hepatic biomarker profiles,"[10]; mouse, in vivo",improved
same,reduced mortality,[10]; thymoquinone before endotoxin or E. coli sepsis in mice,80-90%
same,concentration of nitric oxide,[11],reduced significantly
"trans-3,5-dimethoxy-4-hydroxystilbene [pterostilbene]",NK cell activity,[12],increased
same,interferon gamma production,[12],increased
same,"oxLDL-induced cell shrinkage, chromatin condensation, nuclear fragmentation and cell apoptosis","[13]; HUVECs, oxLDL 200 μg/ml",protected against such injuries
same,expression of lectin-like oxLDL receptor-1 (LOX-1),[13]; in vitro and in vivo,inhibited
same,number of TUNEL-positive cells in the endothelium of atherosclerotic plaque,[14],strongly decreased
same,bioavailability,"[6]; rat, in vivo",80%
